In US10351522B2, “Sulfonamide derivative and pharmaceutically acceptable acid addition salt thereof” (UNIVERSITY OF TSUKUBA, priority 2015, dated 2019):
Like-named read-outs stand apart in the source and are kept apart here.

Key:
[1] = biological target: T1, human OX1R (Homo sapiens, UniProt O43613); assay: Agonist activity against OX1R: intracellular calcium (Fura-2AM, FDSS7000) in CHOOX1R cells; format: cell-based; details: for Emax at 0.1 µM / Emax at 1 µM / Emax at 10 µM: read-out: Response (%) OX1R
T1 construct: expressed in transfected cells; host or cells: CHO (Chinese hamster ovary) cells, line CHOOX1R, co-expressing NFAT-luciferase
T1 sequence (O43613 1-425): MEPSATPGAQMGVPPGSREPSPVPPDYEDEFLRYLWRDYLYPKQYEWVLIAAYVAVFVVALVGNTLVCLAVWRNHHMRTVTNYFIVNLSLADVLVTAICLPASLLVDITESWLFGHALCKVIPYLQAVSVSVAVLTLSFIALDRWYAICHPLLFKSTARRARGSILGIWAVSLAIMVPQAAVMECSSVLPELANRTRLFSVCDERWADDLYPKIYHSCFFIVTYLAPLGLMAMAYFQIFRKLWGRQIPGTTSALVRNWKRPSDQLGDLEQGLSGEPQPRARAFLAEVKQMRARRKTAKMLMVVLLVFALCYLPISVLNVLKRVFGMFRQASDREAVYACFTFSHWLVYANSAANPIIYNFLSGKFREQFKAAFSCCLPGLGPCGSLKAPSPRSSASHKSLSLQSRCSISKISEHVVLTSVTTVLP
How it was run: (§1)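 Response is agonist activity at 0.1, 1.0 or 10 μM compound as a percentage of the orexin-A full-agonist maximum, taken from 340/380 nm Fura-2 ratio changes. Each cell line is CHO constitutively expressing human OX1R or OX2R with NFAT-luciferase, dye-loaded 60 min with 5 μM Fura-2AM; compound range 10^−7–10^−5 M, 1% DMSO.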

[2] = biological target: T2, human OX2R (Homo sapiens, UniProt O43614); assay: Agonist activity against OX2R: intracellular calcium (Fura-2AM, FDSS7000) in CHOOX2R cells; format: cell-based; details: relative to orexin-A as full agonist (100%)
T2 construct: expressed in transfected cells; host or cells: CHO (Chinese hamster ovary) cells, line CHOOX2R, co-expressing NFAT-luciferase
T2 sequence (O43614 1-444): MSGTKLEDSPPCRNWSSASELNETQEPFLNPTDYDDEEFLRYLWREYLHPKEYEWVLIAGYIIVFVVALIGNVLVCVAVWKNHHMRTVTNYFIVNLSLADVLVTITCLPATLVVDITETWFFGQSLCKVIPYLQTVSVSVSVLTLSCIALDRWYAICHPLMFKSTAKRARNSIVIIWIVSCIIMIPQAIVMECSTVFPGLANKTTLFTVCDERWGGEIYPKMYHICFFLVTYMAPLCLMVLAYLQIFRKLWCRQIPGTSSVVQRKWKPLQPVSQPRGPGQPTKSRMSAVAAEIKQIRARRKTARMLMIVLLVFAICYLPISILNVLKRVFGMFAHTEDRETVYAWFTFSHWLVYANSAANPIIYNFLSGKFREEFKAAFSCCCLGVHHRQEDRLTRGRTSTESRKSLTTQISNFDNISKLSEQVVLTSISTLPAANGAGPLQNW
How it was run: as §1

[3] = 0.1 μM test compound, relative to orexin-A as full agonist (100%)
[4] = 1.0 μM test compound, relative to orexin-A as full agonist (100%)
[5] = 10 μM test compound, relative to orexin-A as full agonist (100%)
[6] = test compound 0.1 μM, relative to orexin-A as full agonist (100%)
[7] = test compound 1.0 μM, relative to orexin-A as full agonist (100%)
[8] = test compound 10 μM, relative to orexin-A as full agonist (100%)

Structure (SMILES)	Response (%) OX2R ([2]; test compound 0.1 μM)	Response (%) OX2R ([2]; test compound 1.0 μM)	Response (%) OX2R ([2]; test compound 10 μM)	Response (%) OX1R [1, 3]	Response (%) OX1R [1, 4]	Response (%) OX1R [1, 5]	Response (%) OX2R ([2]; 0.1 μM test compound)	Response (%) OX2R ([2]; 1.0 μM test compound)	Response (%) OX2R ([2]; 10 μM test compound)	Response (%) OX1R [1, 6]	Response (%) OX1R [1, 7]	Response (%) OX1R [1, 8]	further results
COc1ccc(-c2cccc(C(=O)N(C)C)c2)cc1S(=O)(=O)Nc1cccc(N2CCN(c3ccccc3)C2=O)c1 [Example 128, 4′-methoxy-N,N-dimethyl-3′-(N-(3-(2-oxo-3-phenylimidazolidin-1-yl)phenyl)sulfamoyl)-[1,1′-biphenyl]-3-carboxamide]	10%	77%	105%										Emax at 0.1 µM [1]: < 5%; Emax at 1 µM [1]: < 5%; Emax at 10 µM [1]: 6%
COc1ccc(-c2cccc(C(=O)N(C)C)c2)cc1S(=O)(=O)Nc1cccc(NC(=O)Nc2ccc(N)cc2)c1 [Example 55]				<5%	<5%	<5%	<5%	54%	105%				
COc1ccc(Nc2c(Nc3cccc(NS(=O)(=O)c4cc(-c5cccc(C(=O)N(C)C)c5)ccc4OC)c3)c(=O)c2=O)cc1 [Example 81]	<5%	<5%	27%							<5%	<5%	7%	
COc1ccc(-c2cccc(C(=O)N(C)C)c2)cc1S(=O)(=O)Nc1cccc(NC(=O)NCc2ccccc2)c1 [Example 66]				6%	6%	7%	79%	70%	60%				
COc1ccc(-c2cccc(C(=O)N(C)C)c2)cc1S(=O)(=O)Nc1cccc(Nc2ccccc2)c1 [Example 30, 4′-methoxy-N,N-dimethyl-3′-(N-(3-(phenylamino)phenyl)sulfamoyl)-[1,1′-biphenyl]-3-carboxamide]							<5%	<5%	39%				Emax at 0.1 µM [1]: < 5%; Emax at 1 µM [1]: < 5%; Emax at 10 µM [1]: < 5%
COc1ccc(-c2cccc(C(=O)N(C)C)c2)cc1S(=O)(=O)Nc1cccc(N)c1 [Example 99]	19%	14%	76%							8%	8%	9%	
COc1ccc(-c2cccc(C(=O)N(C)C)c2)cc1S(=O)(=O)Nc1cccc(Nc2c(Nc3ccc(C)cc3)c(=O)c2=O)c1 [Example 84]	6%	6%	21%							<5%	<5%	10%	
COc1ccc(-c2cccc(C(=O)N(C)C)c2)cc1S(=O)(=O)Nc1cccc(NC(=O)Nc2cccnc2)c1 [Example 69]				6%	6%	6%	7%	90%	127%				
COc1ccc(-c2cccc(C(=O)N(C)C)c2)cc1S(=O)(=O)Nc1cccc(NC(=O)Nc2cc(OC)c(OC)c(OC)c2)c1 [Example 54]				<5%	<5%	10%	91%	71%	61%				

Second part, led by results:

Response (%) OX2R ([2]; test compound 0.1 μM)	Response (%) OX2R ([2]; test compound 1.0 μM)	Response (%) OX2R ([2]; test compound 10 μM)	Response (%) OX1R [1, 3]	Response (%) OX1R [1, 4]	Response (%) OX1R [1, 5]	Response (%) OX2R ([2]; 0.1 μM test compound)	Response (%) OX2R ([2]; 1.0 μM test compound)	Response (%) OX2R ([2]; 10 μM test compound)	Response (%) OX1R [1, 6]	Response (%) OX1R [1, 7]	Response (%) OX1R [1, 8]	Structure (SMILES)	further results
			<5%	<5%	<5%	12%	81%	114%				COc1ccc(-c2cccc(C(=O)N(C)C)c2)cc1S(=O)(=O)Nc1cccc(NC(=O)c2cccc(C)c2)c1 [Example 15]	
<5%	<5%	16%							<5%	<5%	7%	COc1cccc(Nc2c(Nc3cccc(NS(=O)(=O)c4cc(-c5cccc(C(=O)N(C)C)c5)ccc4OC)c3)c(=O)c2=O)c1 [Example 82]	
32%	88%	100%							<5%	<5%	<5%	CCN(Cc1cccnc1)C(=O)c1ccc(OC)c(S(=O)(=O)Nc2cccc(NC(=O)Nc3ccc(N(C)C)cc3)c2)c1 [Example 111]	
43%	96%	101%							<5%	<5%	18%	COc1ccc(-c2cccc(C(=O)N(C)C)c2)cc1S(=O)(=O)Nc1cccc(N2CCN(c3ccc(N(C)C)cc3)C2=O)c1 [Example 131]	
94%	66%	64%							8%	14%	83%	COc1ccc(-c2cccc(C(=O)N(C)C)c2)cc1S(=O)(=O)Nc1cccc(N2CCCN(c3ccc(N(C)C)cc3)C2=O)c1 [Example 135]	
			<5%	<5%	<5%	17%	93%	102%				COc1ccc(-c2cccc(C(=O)N(C)C)c2)cc1S(=O)(=O)Nc1cccc(NC(=O)Nc2ccccc2N(C)C)c1 [Example 41]	
			<5%	<5%	32%	73%	59%	53%				COc1ccc(-c2cccc(C(=O)N(C)C)c2)cc1S(=O)(=O)Nc1cccc(NC(=O)Nc2ccc(N(C)C)cc2)c1 [Example 39]	
						<5%	51%	99%				COc1ccc(-c2cccc(C(=O)N(C)C)c2)cc1S(=O)(=O)Nc1cccc(NC(=N)Nc2ccccc2)c1 [Example 77, 4′-methoxy-N,N-dimethyl-3′-(N-(3-(3-phenylguanidino)phenyl)sulfamoyl)-[1,1′-biphenyl]-3-carboxamide]	Emax at 0.1 µM [1, 3]: < 5%; Emax at 1 µM [1, 4]: < 5%; Emax at 10 µM [1, 5]: < 5%
4%	27%	84%							<5%	<5%	<5%	COc1ccc(C(=O)NCc2cccnc2)cc1S(=O)(=O)Nc1cccc(NC(=O)Nc2cccc(N(C)C)c2)c1 [Example 103]	
			<5%	<5%	8%	74%	101%	115%				COc1ccc(-c2cccc(C(=O)N(C)C)c2)cc1S(=O)(=O)Nc1cccc(NC(=O)Nc2ccccc2[N+](=O)[O-])c1 [Example 46]	
			<5%	<5%	19%	95%	96%	82%				COc1ccc(-c2cccc(C(=O)N(C)C)c2)cc1S(=O)(=O)Nc1cccc(NC(=O)Nc2ccc(C)cc2)c1 [Example 56]	
